From paper PMC11187126, “Structure and dynamics of the pyroglutamylated RF-amide peptide QRFP receptor GPR103” (Nature Communications, 2024)
Where two headings read alike, the source gives them in different places. No end group written: not given here.

Target: T1, GPR103 Y214^5.38A (Homo sapiens, UniProt Q96P65, Y214A)
T1 construct: we used human full-length QRFPR-encoding plasmids; expressed in transfected cells; host or cells: HEK293 cells, pCAGGS vector
T1 sequence (Q96P65 1-431 Y214A): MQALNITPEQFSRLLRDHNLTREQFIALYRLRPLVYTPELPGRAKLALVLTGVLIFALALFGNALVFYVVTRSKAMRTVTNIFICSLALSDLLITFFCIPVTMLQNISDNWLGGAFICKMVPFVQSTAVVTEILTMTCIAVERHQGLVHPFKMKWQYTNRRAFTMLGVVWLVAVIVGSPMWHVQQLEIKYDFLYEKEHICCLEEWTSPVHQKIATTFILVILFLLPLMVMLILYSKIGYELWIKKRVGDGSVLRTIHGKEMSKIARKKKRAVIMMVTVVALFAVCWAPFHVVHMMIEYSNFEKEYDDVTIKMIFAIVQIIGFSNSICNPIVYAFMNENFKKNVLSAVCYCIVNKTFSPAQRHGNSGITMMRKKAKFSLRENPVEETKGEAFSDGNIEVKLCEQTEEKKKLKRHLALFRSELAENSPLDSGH
Assay: TGFα shedding assay; Exp. level WT (1:50)
Format: cell-based

- Emax (Exp. #1): 18.32 % WT
- Emax (Exp. #2): 10.80 % WT
- Emax (Exp. #3): 19.27 % WT
- Emax (mean, read-out: Emax): 16.1%
- EC50 (n = 3): 105 nM
- Emax (n = 3, read-out: Emax): 16.6 ± 2.2%
Substance: TSGPLGNLAEELNGYSRKKGGFSFRF-NH2 [QRFP26]
